Laboratory results reported in patent US20240174657A1, “SELECTIVE ANGIOTENSIN II RECEPTOR LIGANDS” (priority 2021, published 2024).

How the values were obtained:
Type in all cases: in vitro ADME
CYP3A4&5 = experiment: CYP inhibition in human liver microsomes, testosterone substrate; details: probe testosterone, read-out: CYP3A4&5 testosterone Inh %
[1] = system: Cytochrome P450 enzymes (CYPs), especially CYP 2C9 and CYP 3A4; experiment: CYP enzyme inhibition, statements in text without method; details: found during development
[2] = Metabolic hydrolysis, statement in text without method; details: found during development

inhibition at 10 µM (CYP3A4&5): 94%
inhibition of Cytochrome P450 enzymes (in words) [1]: potent inhibitor
SMILES: CCCCOC(=O)NS(=O)(=O)c1sc(CC(C)C)cc1-c1ccc(Cn2ccnc2)cc1 [Example C21, N-butyloxycarbonyl-3-(4-imidazol-1-ylmethylphenyl)-5-isobutylthiophene-2-sulfon-amide]
metabolic hydrolysis (in words) [2]: rapidly hydrolysed to an inactive sulfonamide metabolite
